Counter-ions that a name gives are not always drawn.

Data on six molecules can be found in patent US20140023611A1 (priority 2010, published 2014).

For one assay, the target named is T1, rat NaP2b (SLC34A2) (Rattus norvegicus, UniProt Q9JJ09).
T1 construct: host or cells: HEK293
T1 sequence (Q9JJ09 1-695): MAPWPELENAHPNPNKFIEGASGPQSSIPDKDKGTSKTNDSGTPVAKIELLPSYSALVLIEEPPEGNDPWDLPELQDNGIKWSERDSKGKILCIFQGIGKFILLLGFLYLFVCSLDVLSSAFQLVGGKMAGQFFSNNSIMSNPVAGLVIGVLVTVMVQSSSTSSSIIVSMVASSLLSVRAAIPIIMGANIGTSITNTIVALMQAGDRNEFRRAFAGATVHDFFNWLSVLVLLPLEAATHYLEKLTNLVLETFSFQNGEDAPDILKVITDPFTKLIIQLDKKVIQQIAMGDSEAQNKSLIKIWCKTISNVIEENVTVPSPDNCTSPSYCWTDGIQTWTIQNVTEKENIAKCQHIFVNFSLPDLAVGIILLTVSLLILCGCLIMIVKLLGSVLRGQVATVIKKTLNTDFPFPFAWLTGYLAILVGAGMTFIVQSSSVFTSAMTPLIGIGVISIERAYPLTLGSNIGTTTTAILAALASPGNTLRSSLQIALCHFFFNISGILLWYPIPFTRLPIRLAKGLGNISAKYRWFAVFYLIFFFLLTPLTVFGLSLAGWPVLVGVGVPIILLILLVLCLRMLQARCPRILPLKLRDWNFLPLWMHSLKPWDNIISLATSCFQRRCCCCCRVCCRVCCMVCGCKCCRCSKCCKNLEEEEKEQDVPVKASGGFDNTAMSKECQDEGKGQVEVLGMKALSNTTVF
Briefly: NaP2b-mediated Pi transport (33P uptake) in transfected HEK293 cells, rat NaP2b. In kind it is cell-based. The settings on record: Structure (V) examples, Table 2; rat NaP2b, HEK293; read-out: pIC50 Range (converted). The method, boiled down:
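HEK293 cells transiently transfected with NaP2b cDNA, endogenous PiT transport suppressed; ^33P-phosphate uptake measured in sodium vs choline buffer (100 uM KH2PO4, pH 7.4) for 3–30 min at room temperature. Twelve concentrations, 0.1 nM–30 uM, in duplicate; uptake by scintillation counting, pIC50 calculated.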

Assay [1] concerns Uptake of Phosphorus from the Intestine. Briefly: In vivo co-dosing in chow (urine P out / P consumed). The settings on record: Rattus norvegicus, feed or water, rats, compound in chow, read-out: Mean % inhibition Urine Pout/P consumed; for inhibition in vivo at 50 mg/kg/day: mean drug dose 50 mg/kg/day. The method, boiled down: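 Male 7-week-old rats were fed a synthetic diet (0.6% P, 0.6% Ca) for 4 days, then housed in metabolic cages with compound in chow at 1.3 mg/g (nominal 100 mg/kg/day). Urinary P was measured by ion chromatography over 24–96 h and related to dietary P consumed. Percentage inhibition was calculated against no-drug controls.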

For `COCCNC(=O)CCSCc1cccc(C(=O)Nc2ccc(N3CCCCC3)cc2C(=O)N/N=C/c2ccc(Cl)c(C(F)(F)F)c2)c1` [Ex. 49, (E)-N-(2-(2-(4-chloro-3-(trifluoromethyl)benzylidene)hydrazinecarbonyl)-4-(piperidin-1-yl)phenyl)-3-((3-(2-methoxyethylamino)-3-oxopropylthio)methyl)benzamide], the IC50 on rat NaP2b (SLC34A2) was 100 to 794 nM. The same measure, in the same setting: the result for `O=C(NCCN1CCOCC1)c1cccc(C(=O)Nc2ccc(N3CCCCC3)cc2C(=O)N/N=C/c2ccc(Cl)c(C(F)(F)F)c2)c1` [Ex. 53, (E)-N^1-(2-(2-(4-chloro-3-(trifluoromethyl)benzylidene)hydrazinecarbonyl)-4-(piperidin-1-yl)phenyl)-N3-(2-morpholinoethyl)isophthalamide] reads 100 to 794 nM.

Take `CCN(CC)c1ccc(NC(=O)c2cccc(CCCOCCOCCOCCOCCOCCOCCOCCOCCOCCC(=O)O)c2)c(-c2cc(C(=O)NCc3cccc(C(F)(F)F)c3)ccn2)c1` [Example 298, 31-(3-(4-(diethylamino)-2-(4-(3-(trifluoromethyl)benzylcarbamoyl)pyridin-2-yl)phenylcarbamoyl)phenyl)-4,7,10,13,16,19,22,25,28-nonaoxahentriacontan-1-oic acid]: the inhibition in vivo at 50 mg/kg/day in assay [1] was 10 to 30%.

In the case of `CCN(CC)c1ccc(NC(=O)c2cccc(CCCOCCOCCOCCOCCOCCOCCC(=O)O)c2)c(-c2cc(C(=O)NCc3cccc(C(F)(F)F)c3)ccn2)c1` [Example 299, 22-(3-(4-(diethylamino)-2-(4-(3-(trifluoromethyl)benzylcarbamoyl)pyridin-2-yl)phenylcarbamoyl)phenyl)-4,7,10,13,16,19-hexaoxadocosan-1-oic acid], the inhibition in vivo at 50 mg/kg/day in assay [1] was in the range of 10 to 30%. As for `CCN(CC)c1ccc(NC(=O)c2cccc(CCCOCCOCCOCCOCCOCCC(=O)O)c2)c(-c2cc(C(=O)NCc3cccc(C(F)(F)F)c3)ccn2)c1` [Example 300, 19-(3-(4-(diethylamino)-2-(4-(3-(trifluoromethyl)benzylcarbamoyl)pyridin-2-yl)phenylcarbamoyl)phenyl)-4,7,10,13,16-pentaoxanonadecan-1-oic acid], the inhibition in vivo at 50 mg/kg/day in assay [1] was no more than 10%.

For the molecule `CCN(CC)c1ccc(NC(=O)c2cccc(C(=O)N(C)CCN(CCOC)CCOCCOCCOCCOCCOCCOCCOC)c2)c(-c2cc(C(=O)NCc3cccc(C(F)(F)F)c3)ccn2)c1` [Example 335, N^1-(4-(Diethylamino)-2-(4-(3-(trifluoromethyl)benzylcarbamoyl)pyridin-2-yl)phenyl)-N^3-(23-(2-methoxyethyl)-2,5,8,11,14,17,20-heptaoxa-23-azapentacosan-25-yl)-N^3-methylisophthalamide, trifluoroacetate], the inhibition in vivo at 100 mg/kg/day in assay [1] (mean drug dose 100 mg/kg/day) is no more than 10%.
